# Assays:
# Type in all cases: cell-based, human
# MIA PaCa-2 cells [1] = assay: Annexin V flow cytometry (apoptosis); conditions: BAR502 10-20 µM + LIF 10 ng/mL; p<0.05
# Protocol: (§1) MIA-PaCa2 cells were seeded in 6-well tissue culture plate (cell density 700 × 10^3/well) and cultured as specified above. Cells were serum-starved for 8 h and then incubated with LIF (10 ng/mL) alone or plus BAR502 (10, 20 µM) or a vehicle for 24 h. The intracellular flow cytometry staining for Ki-67 was performed using the following reagents: Ki-67 Monoclonal Antibody (SolA15), Alexa Fluor™ 488, (eBioscience™, San Diego, California, USA) and 7-AAD to characterize the cell cycle phases G0-G1 and S-G2-M. Before intracellular IC-FACS, staining cells were fixed for 30 min in the dark using IC Fixation buffer (eBioscience™) and then permeabilized using Permeabilization buffer (10X) (eBioscience™). The staining for Annexin V was performed using the Annexin V Antibody (A13199, Thermofisher Scientific, Waltham, MA, USA) to evaluate the apoptosis rate. Briefly, 5 μL of Annexin V Antibody was added to each 100 μL of cell suspension, and cells were incubated the at room temperature for 15 min. Flow cytometry analyses were carried out using a 3-laser standard configuration ATTUNE NxT (LIFe Technologies, Carlsbad, CA, USA). Data were analyzed using FlowJo software (TreeStar) and the gates set using a fluorescence minus-one (FMO) control strategy. […] The channel in which the conjugated Ab is missing is the one for which the fluorescence minus one provides a gating control.
# MIA PaCa-2 cells [2] = assay: Ki-67/7-AAD IC-FACS cell cycle analysis
# Protocol: as §1
# MIA PaCa-2 cells [3] = assay: AmpliSeq transcriptome (RNAseq) analysis; conditions: LIF 10 ng/mL + BAR502 10 µM versus LIF, 24 h
# Protocol: MIA PaCa-2 cells were cultured in 6-well tissue culture plate (cell density 1.5 * 10^6/well) in DMEM complete medium. After serum starving, cells were exposed with LIF (10 ng/mL) alone or plus BAR502 (10 µM) or left untreated for 24h. High-quality RNA was extracted from MIA PaCa-2 cells using the PureLink™ RNA Mini Kit (Thermo Fisher Scientific), according to the manufacturer’s instructions. RNA quality and quantity were assessed with the Qubit® RNA HS Assay Kit and a Qubit 3.0 fluorometer followed by agarose gel electrophoresis. Libraries were generated using the Ion AmpliSeq™ Transcriptome Human Gene Expression Core Panel and Chef-Ready Kit (Thermo Fisher Scientific), according to the manufacturer’s instructions. Briefly, 10 ng of RNA was reverse transcribed with SuperScript™ Vilo™ cDNA Synthesis Kit (Thermo Fisher Scientific, Waltham, MA) before library preparation on the Ion Chef™ instrument (Thermo Fisher Scientific, Waltham, MA). The resulting cDNA was amplified to prepare barcoded libraries using the Ion Code™ PCR Plate, and the Ion AmpliSeq™ Transcriptome Human Gene Expression Core Panel (Thermo Fisher Scientific, Waltham, MA), Chef-Ready Kit, according to the manufacturer’s instructions. Barcoded libraries were combined to a final concentration of 100 pM, and used to prepare Template-Positive Ion Sphere™ (Thermo Fisher Scientific, Waltham, MA) Particles to load on Ion 540™ Chips, using the Ion 540™ Kit-Chef (Thermo Fisher Scientific, Waltham, MA). Sequencing was performed on an Ion S5™ Sequencer with Torrent Suite™ Software v6 (Thermo Fisher Scientific). The analyses were performed with a range of fold <−2 and >+2 and a p value < 0.05, using Transcriptome Analysis Console Software (version 4.0.2), certified for AmpliSeq analysis (Thermo-Fisher). The transcriptomic data have been deposited as dataset on Mendeley data repository […].
# MIA PaCa-2 cells [4] = assay: Real-time PCR and Western blot of EMT markers, CXCR4 and STAT3 phosphorylation
# Protocol: The RNA was extracted from cell lines using and Direct-zol™ RNA MiniPrep w/Zymo-Spin™ IIC Columns (Zymo Research, Irvine, CA, USA)., according to the manufacturer’s protocol as described previously ([20]). After purification from genomic DNA by DNase-I treatment (ThermoFisher Scientific, Waltham, MA USA), 2 µg of RNA from each sample was reverse-transcribed using Kit FastGene Scriptase Basic (Nippon Genetics, Mariaweilerstraße, Düren, Germania) in a 20 μL reaction volume. Finally, 50 ng cDNA were amp LIFied in a 20 μL solution containing 200 nM of each primer and 10 μL of SYBR Select Master Mix (ThermoFisher Scientific). All reactions were performed in triplicate, and the thermal cycling conditions were as follows: 3 min at 95°C, followed by 40 cycles of 95°C for 15 s, 56°C for 20 s and 72°C for 30 s, using a Step One Plus machine (Applied Biosystem). The relative mRNA expression was calculated accordingly to the 2^-ΔCt method. Primers used in this study were designed using the PRIMER3 (http://frodo.wi.mit.edu/primer3/) software using the NCBI […]. RT-PCR primers used in this study for human sample and human cell lines were as follow [forward (for) and reverse (rev)]:
# MIA-PaCa 2 cells were seeded in 6-well tissue culture plate (cell density 1.5 * 10^6/well) in DMEM complete medium. After serum starving, cells were incubated with LIF (10 ng/mL) alone or plus BAR502 (10 µM) for 10 min. Total lysates were prepared by homogenization of MIA-PaCa2 cells in RIPA buffer containing phosphatase and protease inhibitors. […] Primary Abs were detected with the HRP-labeled secondary Abs. […] Quantitative densitometry analysis was performed using ImageJ software. The degree of STAT3 phosphorylation was calculated as the ratio between the densitometry readings of […] p-STAT3/STAT3.
smiles,measurement,setting,value
CC[C@H]1[C@@H](O)C2C3CC[C@H]([C@H](C)CCO)[C@@]3(C)CCC2[C@@]2(C)CC[C@@H](O)C[C@@H]12 (stereo partly shown) [BAR502],effect on percentage of Annexin V+ cells,MIA PaCa-2 cells [1],increased the percentage of Annexin V^+ cells
same,effect on LIF-increased S-G2-M transition,MIA PaCa-2 cells [2]; BAR502 10-20 μM + LIF 10 ng/mL,significantly reversed
same,effect on LIF-induced increase of Ki-67 positive cells,MIA PaCa-2 cells [2]; LIF 10 ng/mL + BAR502,reversed
same,CCND2 expression Fold Change (FC),MIA PaCa-2 cells [3],"16,13"
same,KIF20A expression Fold Change (FC),MIA PaCa-2 cells [3],"-17,49"
same,RRM2 expression Fold Change (FC),MIA PaCa-2 cells [3],"-14,34"
same,SESN2 expression Fold Change (FC),MIA PaCa-2 cells [3],"15,84"
same,SLC7A11 expression Fold Change (FC),MIA PaCa-2 cells [3],"35,54"
same,TNFRSF1B (TNFR2) expression Fold Change (FC),MIA PaCa-2 cells [3],"-11,72"
same,TOP2A expression Fold Change (FC),MIA PaCa-2 cells [3],"-9,61"
same,effect on STAT3 phosphorylation caused by LIF,"MIA PaCa-2 cells [4]; BAR502 10 µM + LIF 10 ng/mL, Western blot",significantly attenuated STAT3 phosphorylation
same,effect on vimentin expression (RNA and protein) induced by LIF,MIA PaCa-2 cells [4]; BAR502 10-20 μM + LIF 10 ng/mL,reversed the induction of vimentin expression
same,effect on CXCR4 mRNA expression increased by LIF,"MIA PaCa-2 cells [4]; BAR502 + LIF 10 ng/mL, 24 h",reversed the mRNA expression

# Reference: PMC10043345, “Discovery of BAR502, as potent steroidal antagonist of leukemia inhibitory factor receptor for the treatment of pancreatic adenocarcinoma” (Frontiers in Oncology, 2023)
